Measured values from patent US8030498B2, “Benzoylpyrazole compounds and herbicides containing them” (Ishihara Sangyo Kaisha, Ltd., priority 2005, dated 2011).

Columns and labels:
wheat (Triticum spp.) = experiment: Test Example 1: foliar treatment, growth inhibition rate, wheat; format: in vivo; settings: visually observed 17th to 23rd day after application
From the text: (§1) Upland field soil was put into a 1/170,000 hectare pot, and seeds of various plants were sown. When the respective plants reached predetermined leaf stage ((1) barnyardgrass (Echinochloa crus-galli L.); 0.8 to 2.5 leaf stage, (2) crabgrass (Digitaria sanguinalis L.): 0.5 to 3.0 leaf stage, (3) greenfoxtail (Setaria viridis L.): 1.0 to 3.0 leaf stage, (4) redroot pigweed (Amaranthus retroflexus L.): cotyledon stage to 2.0 leaf stage, (5) prickly sida (Sida spinosa L.): cotyledon stage to 1.1 leaf stage, (6) velvetleaf (Abutilon theophrasti MEDIC.): cotyledon stage to 1.5 leaf stage, (7) rice (Oryza sativa L.): 1.0 to 2.5 leaf stage, (8) wheat (Triticum spp.): 1.7 to 3.4 leaf stage, (9) corn (Zea mays L.): 2.0 to 3.5 leaf stage, and (10) soybean (Glycine max Merr.): primary leaf stage to 0.3 leaf stage), wettable powders or emulsifiable concentrates of the compounds of the present invention prepared in accordance with a conventional preparation method, were weighed so that the active ingredients became the prescribed amounts, and diluted with water in an amount corresponding to 500 liter per 1 hectare. 0.1 vol % of an agricultural spreader was further added to the respective diluted liquids, followed by foliar treatment with a small sprayer.
(§2) On the 17th to 23rd day after application, the state of growth of the respective plants was visually observed, and the herbicidal effect was evaluated in accordance with a growth inhibition rate (%) of 0 (equivalent to the non-treated area) to 100% (complete kill).

[1] = system: crabgrass (Digitaria sanguinalis L.); experiment: Test Example 1: foliar treatment, growth inhibition rate, crabgrass; format: in vivo; settings: visually observed 17th to 23rd day after application
From the text: as §1, §2

[2] = system: barnyardgrass (Echinochloa crus-galli L.); experiment: Test Example 1: foliar treatment, growth inhibition rate, barnyardgrass; format: in vivo; settings: visually observed 17th to 23rd day after application
From the text: as §1, §2

corn (Zea mays L.) = experiment: Test Example 1: foliar treatment, growth inhibition rate, corn; format: in vivo; settings: visually observed 17th to 23rd day after application
From the text: as §1, §2

[3] = system: redroot pigweed (Amaranthus retroflexus L.); experiment: Test Example 1: foliar treatment, growth inhibition rate, redroot pigweed; format: in vivo; settings: visually observed 17th to 23rd day after application
From the text: as §1, §2

[4] = system: prickly sida (Sida spinosa L.); experiment: Test Example 1: foliar treatment, growth inhibition rate, prickly sida; format: in vivo; settings: visually observed 17th to 23rd day after application
From the text: as §1, §2

[5] = system: velvetleaf (Abutilon theophrasti MEDIC.); experiment: Test Example 1: foliar treatment, growth inhibition rate, velvetleaf; format: in vivo; settings: visually observed 17th to 23rd day after application
From the text: as §1, §2

[6] = system: soybean (Glycine max Merr.); experiment: Test Example 1: foliar treatment, growth inhibition rate, soybean; format: in vivo; settings: visually observed 17th to 23rd day after application
From the text: as §1, §2

[7] = system: greenfoxtail (Setaria viridis L.); experiment: Test Example 1: foliar treatment, growth inhibition rate, greenfoxtail; format: in vivo; settings: visually observed 17th to 23rd day after application
From the text: as §1, §2

rice (Oryza sativa L.) = experiment: Test Example 1: foliar treatment, growth inhibition rate, rice; format: in vivo; settings: visually observed 17th to 23rd day after application
From the text: as §1, §2

velvetleaf = experiment: Test Example 2: soil application on the day after sowing, growth inhibition rate, velvetleaf; format: in vivo, Abutilon theophrasti MEDIC.; settings: 250 g/ha active ingredient, observed on 19th to 24th day
From the text: (§3) Upland field soil was put into a 1/170,000 hectare pot, and seeds of various plants (barnyardgrass, crabgrass, greenfoxtail, redroot pigweed, prickly sida, velvetleaf, rice, wheat, corn and soybean) were sown. On the day after sowing, wettable powders or emulsifiable concentrates of the compounds of the present invention prepared in accordance with a conventional preparation method, were weighed so that the active ingredients became the prescribed amounts, and diluted with water in an amount corresponding to 500 liter per 1 hectare, followed by soil application with a small sprayer. On the 19th to 24th day after the application, the state of growth of the respective plants was visually observed, and the herbicidal effect was evaluated in accordance with a growth inhibition rate (%) of from 0 (equivalent to the non-treated area) to 100% (complete kill).

corn = experiment: Test Example 2: soil application on the day after sowing, growth inhibition rate, corn; format: in vivo, Zea mays L.; settings: 250 g/ha active ingredient, observed on 19th to 24th day
From the text: as §3

crabgrass = experiment: Test Example 2: soil application on the day after sowing, growth inhibition rate, crabgrass; format: in vivo, Digitaria sanguinalis L.; settings: 250 g/ha active ingredient, observed on 19th to 24th day
From the text: as §3

redroot pigweed = experiment: Test Example 2: soil application on the day after sowing, growth inhibition rate, redroot pigweed; format: in vivo, Amaranthus retroflexus L.; settings: 250 g/ha active ingredient, observed on 19th to 24th day
From the text: as §3

SMILES	Growth inhibition rate (%) Wheat (wheat (Triticum spp.); 63 g/ha active ingredient)	Growth inhibition rate (%) Crabgrass ([1]; 63 g/ha active ingredient)	Growth inhibition rate (%) Barnyardgrass ([2]; 63 g/ha active ingredient)	Growth inhibition rate (%) Corn (corn (Zea mays L.); 63 g/ha active ingredient)	Growth inhibition rate (%) redroot pigweed ([3]; 63 g/ha active ingredient)	Growth inhibition rate (%) Prickly sida ([4]; 63 g/ha active ingredient)	Growth inhibition rate (%) Velvetleaf ([5]; 63 g/ha active ingredient)	Growth inhibition rate (%) Soybean ([6]; 63 g/ha active ingredient)	Growth inhibition rate (%) Greenfoxtail ([7]; 63 g/ha active ingredient)	Growth inhibition rate (%) Rice (rice (Oryza sativa L.); 63 g/ha active ingredient)	Growth inhibition rate (%) Wheat (wheat (Triticum spp.); 31 g/ha active ingredient)	Growth inhibition rate (%) Crabgrass ([1]; 31 g/ha active ingredient)	Growth inhibition rate (%) Barnyardgrass ([2]; 31 g/ha active ingredient)	Growth inhibition rate (%) Corn (corn (Zea mays L.); 31 g/ha active ingredient)	Growth inhibition rate (%) redroot pigweed ([3]; 31 g/ha active ingredient)	Growth inhibition rate (%) Prickly sida ([4]; 31 g/ha active ingredient)	Growth inhibition rate (%) Velvetleaf ([5]; 31 g/ha active ingredient)	Growth inhibition rate (%) Soybean ([6]; 31 g/ha active ingredient)	Growth inhibition rate (%) Greenfoxtail ([7]; 31 g/ha active ingredient)	Growth inhibition rate (%) Rice (rice (Oryza sativa L.); 31 g/ha active ingredient)	further results
CCSC(=O)Oc1c(C(=O)c2ccc(S(C)(=O)=O)c(CC3OCCO3)c2C)cnn1C [compound 238]	10%	98%	100%	0%	100%	98%	100%	98%	98%	90%											
CCSC(=O)Oc1c(C(=O)c2ccc(S(C)(=O)=O)c(OCC(F)(F)F)c2C)cnn1C [compound 79]											0%	100%	100%	50%	100%	75%	98%	100%	98%	60%	Growth inhibition rate (%) Velvetleaf (velvetleaf): 50%; Growth inhibition rate (%) Corn (corn): 0%; Growth inhibition rate (%) Crabgrass (crabgrass): 90%; Growth inhibition rate (%) redroot pigweed (redroot pigweed): 90%
CCSC(=O)Oc1c(C(=O)c2ccc(S(C)(=O)=O)c(OCCCl)c2C)cnn1C [compound 78]											0%	70%	60%	0%	60%	60%	65%	70%	60%	10%	Growth inhibition rate (%) Velvetleaf (velvetleaf): 50%; Growth inhibition rate (%) Corn (corn): 0%; Growth inhibition rate (%) Crabgrass (crabgrass): 95%; Growth inhibition rate (%) redroot pigweed (redroot pigweed): 80%
C=C(C)CSC(=O)Oc1c(C(=O)c2ccc(S(C)(=O)=O)c(C(=O)OC)c2C)cnn1CC [compound 101]											10%	100%	100%	30%	100%	70%	98%	90%	100%	98%	
CCSC(=O)Oc1c(C(=O)c2ccc(S(C)(=O)=O)c(CCC#N)c2C)cnn1C [compound 230]	40%	100%	100%	0%	100%	80%	95%	100%	100%	95%											
CCSC(=O)Oc1c(C(=O)c2ccc(S(C)(=O)=O)c(Cl)c2C)cnn1CC [compound 71]											10%	40%	70%	0%	70%	60%	60%	60%	60%	60%	
CCSC(=O)Oc1c(C(=O)c2ccc(S(C)(=O)=O)c(CS(C)(=O)=O)c2C)cnn1C [compound 72]											0%	50%	80%	10%	60%	60%	60%	70%	70%	50%	Growth inhibition rate (%) Velvetleaf (velvetleaf): 30%; Growth inhibition rate (%) Corn (corn): 0%; Growth inhibition rate (%) Crabgrass (crabgrass): 0%; Growth inhibition rate (%) redroot pigweed (redroot pigweed): 50%
CCSC(=O)Oc1c(C(=O)c2ccc(S(C)(=O)=O)c(CN(CC#N)C(=O)SCC)c2C)cnn1C [compound 228]	0%	60%	98%	0%	40%	40%	70%	80%	40%	0%											
CCSC(=O)Oc1c(C(=O)c2ccc(S(C)(=O)=O)c(OCC3OCCO3)c2Cl)cnn1CC [compound 227]	0%	100%	100%	0%	100%	60%	100%	95%	100%	30%											
CCSC(=O)Oc1c(C(=O)c2ccc(S(C)(=O)=O)c(CCCOC)c2C)cnn1C [compound 226]											0%	95%	100%	0%	95%	70%	80%	100%	95%	100%	
CCSC(=O)Oc1c(C(=O)c2ccc(S(C)(=O)=O)c(C=CC#N)c2C)cnn1C [compound 229]	50%	100%	100%	60%	100%	98%	100%	98%	100%	95%											
CCSC(=O)Oc1c(C(=O)c2ccc(S(C)(=O)=O)c(CC(N)=S)c2C)cnn1C [compound 232]	0%	95%	90%	0%		70%	90%	90%	95%	95%											
CCC(C)SC(=O)Oc1c(C(=O)c2ccc(S(C)(=O)=O)c(OCCOC)c2C)cnn1C (stereo not shown) [compound 239]												100%	98%	0%		80%	100%	100%	100%	85%	
COCCOc1c(S(C)(=O)=O)ccc(C(=O)c2cnn(C)c2OC(=O)SC(C)(C)C)c1C [compound 241]												98%	100%	0%	100%	90%	100%	100%	100%	90%	
